According to patent US20230212163A1, “2-(HET)ARYL-SUBSTITUTED CONDENSED HETEROCYCLIC DERIVATIVES AS PEST CONTROL AGENTS” (Bayer Aktiengesellschaft, priority 2020, published 2023):
Read-outs that look alike come from different tables or passages of the source.

Legend:
[1] = logP by HPLC on reversed-phase column (C18); type: physicochemical; settings: LC-UV
Description: The logP values were determined according to EEC Directive 79/831 Annex V.A8 by HPLC (high-performance liquid chromatography) on a reversed-phase column (C18) using the following methods: ^[a]The logP value is determined by LC-UV measurement in the acidic range using 0.9 ml/l formic acid in water and 1.0 ml/l formic acid in acetonitrile as mobile phases (linear gradient from 10% acetonitrile to 95% acetonitrile). ^[b]The logP value is determined by LC-UV measurement in the neutral range using 0.001 molar ammonium acetate solution in water and acetonitrile as mobile phases (linear gradient from 10% acetonitrile to 95% acetonitrile). Calibration was carried out using straight-chain alkan-2-ones (having 3 to 16 carbon atoms) with known logP values. The values between successive alkanones are determined by linear regression.

Phaedon cochleariae = Phaedon cochleariae spray test; type: in vivo; settings: application rate 100 g/ha, after 7 days
Description: (§1) [table] To produce a suitable active compound formulation, 1 part by weight of active compound is dissolved using the stated parts by weight of solvent and made up with water containing an emulsifier concentration of 1000 ppm until the desired concentration is attained. To produce further test concentrations, the formulation is diluted with emulsifier-containing water. Discs of Chinese cabbage leaves (Brassica pekinensis) are sprayed with an active compound formulation of the desired concentration and, after drying, populated with larvae of the mustard beetle (Phaedon cochleariae). After 7 days, the efficacy in % is determined. 100% means that all the beetle larvae have been killed; 0% means that no beetle larvae have been killed.

Myzus persicae = Myzus persicae oral test; type: in vivo; settings: 120 h, application rate 4 ppm, after 5 days, read-out: efficacy
Description: [table] To produce a suitable active compound formulation, 1 part by weight of active compound is dissolved using the specified parts by weight of solvent and made up with water until the desired concentration is attained. 50 μl of the active compound formulation are transferred into microtitre plates and made up to a final volume of 200 μl with 150 μl of IPL41 insect medium (33%+15% sugar). Subsequently, the plates are sealed with parafilm, which a mixed population of green peach aphids (Myzus persicae) within a second microtitre plate is able to puncture and imbibe the solution through. After 5 days, the efficacy in % is determined. 100% means that all the aphids have been killed; 0% means that no aphids have been killed.

Spodoptera frugiperda [2] = experiment: Spodoptera frugiperda spray test (maize leaf discs); type: in vivo; settings: Spodoptera frugiperda, foliar, 168 h, application rate 100 g/ha, after 7 days
Description: as §1, with “water. Leaf discs” for “water. Discs”, “of maize (Zea mays)” for “of Chinese cabbage leaves (Brassica pekinensis)”, “with caterpillars” for “with larvae”, “the fall armyworm (Spodoptera frugiperda).” for “the mustard beetle (Phaedon cochleariae).”, “the caterpillars” for “the beetle larvae”, “no caterpillar has” for “no beetle larvae have”

Heliothis armigera = Heliothis armigera spray test (HELIAR), comparative; type: in vivo; settings: Helicoverpa armigera, 168 h, 7 dat, read-out: % efficacy
Description: (§2) [table] To produce a suitable active compound formulation, 1 part by weight of active compound is dissolved using the stated parts by weight of solvent and made up with water containing an emulsifier concentration of 1000 ppm until the desired concentration is attained. To produce further test concentrations, the formulation is diluted with emulsifier-containing water. If the addition of ammonium salts or/and penetrants is required, these are each added in a concentration of 1000 ppm to the formulation solution. Cotton plants (Gossypium hirsutum) are sprayed with an active compound formulation of the desired concentration and, after drying, populated with caterpillars of the cotton bollworm (Heliothis armigera). After the desired time, the kill in % is determined. 100% means that all caterpillars have been killed; 0% means that none of the caterpillars have been killed.

Spodoptera frugiperda [3] = experiment: Spodoptera frugiperda spray test (SPODFR, cotton leaves), comparative; type: in vivo; settings: 168 h, 7 dat, read-out: % efficacy
Description: as §2, with “leaves” for “plants”, “and” for “and, after drying,”, “armyworm (Spodoptera frugiperda).” for “cotton bollworm (Heliothis armigera).”

Plutella xylostella = Plutella xylostella spray test (PLUTMA), comparative; type: in vivo; settings: 168 h, 7 dat, read-out: % efficacy
Description: as §2, with “solution. Cabbage leaves (Brassica oleracea)” for “solution. Cotton plants (Gossypium hirsutum)”, “concentration and infected” for “concentration and, after drying, populated”, “with larvae” for “with caterpillars”, “the diamondback moth (Plutella xylostella).” for “the cotton bollworm (Heliothis armigera).”

Diabrotica balteata = Diabrotica balteata spray test; type: in vivo; settings: Diabrotica balteata, 168 h, after 7 days; for pest or weed control at 31.25 g/ha: application rate 31.25 g/ha (=10 μg/cavity); for pest or weed control at 31.25 g/ha / pest or weed control at 125 g/ha / pest or weed control at 500 g/ha: read-out: efficacy; for pest or weed control at 125 g/ha: application rate 125 g/ha (=40 μg/cavity); for pest or weed control at 500 g/ha: application rate 500 g/ha (=160 μg/cavity); for pest or weed control at 100 g/ha: application rate 100 g/ha; for pest or weed control at 20 g/ha: application rate 20 g/ha
Description: [table] To produce a suitable active compound formulation, 1 part by weight of active compound is dissolved using the stated parts by weight of solvent and made up with water containing an emulsifier concentration of 1000 ppm until the desired concentration is attained. To produce further test concentrations, the formulation is diluted with emulsifier-containing water. Pre-swollen wheat grains (Triticum aestivum) are incubated in a multiwell plate filled with agar and a little water for one day (5 seed grains per cavity). The germinated wheat grains are sprayed with an active compound formulation of the desired concentration. Subsequently, each cavity is infected with 10-20 beetle larvae of Diabrotica balteata. After 7 days, the efficacy in % is determined. 100% means that all wheat plants have grown as in the untreated, uninfected control; 0% means that no wheat plant has grown.

Nezara viridula = Nezara viridula spray test; type: in vivo; settings: Nezara viridula, 96 h, application rate 500 g/ha, after 4 days
Description: [table] To produce a suitable active compound formulation, 1 part by weight of active compound is dissolved using the stated parts by weight of solvent and made up with water containing an emulsifier concentration of 1000 ppm until the desired concentration is attained. To produce further test concentrations, the formulation is diluted with emulsifier-containing water. Barley plants (Hordeum vulgare) are sprayed with an active compound formulation of the desired concentration and are infected with larvae of the Southern green shield bug (Nezara viridula). After 4 days, the efficacy in % is determined. 100% means that all of the shield bugs have been killed; 0% means that none of the shield bugs have been killed.

[4] = neutral range, ammonium acetate/acetonitrile, read-out: logP (neutral)

SMILES | pest or weed control at 4 ppm (Myzus persicae) [%] | pest or weed control at 100 g/ha (Spodoptera frugiperda [2]) [%] | pest or weed control at 100 g/ha (Diabrotica balteata) [%] | pest or weed control at 500 g/ha (Nezara viridula) [%] | pest or weed control at 20 g/ha (Diabrotica balteata) [%] | other results
O=S(=O)(c1ccc2oc(-c3nc(F)ccc3F)nc2c1)C(F)(F)F [2-(3,6-Difluoro-2-pyridyl)-5-(trifluoromethylsulfonyl)-1,3-benzoxazole] | – | – | – | – | – | chromatographic logP [1, 4]: 3.06
CCSc1ccc(F)nc1-c1nc2cc(S(=O)(=O)C(F)(F)F)ccc2o1 [2-(3-Ethylsulfanyl-6-fluoro-2-pyridyl)-5-(trifluoromethylsulfonyl)-1,3-benzoxazole] | – | – | – | – | – | chromatographic logP ([1]; acidic range, formic acid in water/acetonitrile, read-out: logP (acidic)): 4.13
CCS(=O)(=O)c1ccc(F)nc1-c1nc2cc(S(=O)(=O)C(F)(F)F)ccc2o1 [2-(3-Ethylsulfonyl-6-fluoro-2-pyridyl)-5-(trifluoromethylsulfonyl)-1,3-benzoxazole] | – | – | – | – | – | chromatographic logP [1, 4]: 3.11
CCS(=O)(=O)c1ccc(N2N=CC(c3ccccc3)C2=O)nc1-c1nc2cc(S(=O)(=O)C(F)(F)F)ccc2o1 (centres unmarked) [Example I-01] | 100 | 100 | – | – | – | activity (Phaedon cochleariae): 100%
CCS(=O)(=O)c1ccc(-n2ncn(-c3ccc(Cl)cc3)c2=O)nc1-c1nc2cc(S(=O)(=O)C(F)(F)F)ccc2o1 [Example I-02] | 90 | 100 | – | – | – | Emax at 0.8 ppm (Heliothis armigera): 100%; Emax at 4 ppm (Heliothis armigera): 100%; activity (Phaedon cochleariae): 100%; Emax at 0.8 ppm (Spodoptera frugiperda [3]): 100%; Emax at 0.8 ppm (Plutella xylostella): 100%
CCS(=O)(=O)c1ccc(-n2ncn(-c3ccc(Br)cc3)c2=O)nc1-c1nc2cc(S(=O)(=O)C(F)(F)F)ccc2o1 [Example I-05] | 100 | 100 | – | – | – | pest or weed control at 31.25 g/ha (Diabrotica balteata): 100%; pest or weed control at 125 g/ha (Diabrotica balteata): 100%; pest or weed control at 500 g/ha (Diabrotica balteata): 100%
CCS(=O)(=O)c1ccc(-n2ncn(-c3ccc(C#N)cc3)c2=O)nc1-c1nc2cc(S(=O)(=O)C(F)(F)F)ccc2o1 [Example I-06] | 90 | 100 | – | – | – | pest or weed control at 31.25 g/ha (Diabrotica balteata): 100%; pest or weed control at 125 g/ha (Diabrotica balteata): 100%; pest or weed control at 500 g/ha (Diabrotica balteata): 100%
CCS(=O)(=O)c1ccc(-n2ncn(-c3cccc(F)c3)c2=O)nc1-c1nc2cc(S(=O)(=O)C(F)(F)F)ccc2o1 [Example I-14, 2-[5-Ethylsulfonyl-6-[5-(trifluoromethylsulfonyl)-1,3-benzoxazol-2-yl]-2-pyridyl]-4-(3-fluorophenyl)-1,2,4-triazol-3-one] | 90 | 100 | 100 | – | – | chromatographic logP [1, 4]: 3.43; pest or weed control at 500 g/ha (Diabrotica balteata): 100%
CCS(=O)(=O)c1ccc(-n2ncn(-c3cccc(I)c3)c2=O)nc1-c1nc2cc(S(=O)(=O)C(F)(F)F)ccc2o1 [Example I-16] | 90 | 100 | 100 | – | – | pest or weed control at 500 g/ha (Diabrotica balteata): 100%
CCS(=O)(=O)c1ccc(-n2ncn(-c3ccc(Cl)cc3)c2=O)nc1-c1nc2cc(C(F)(F)C(F)(F)F)ccc2o1 [Example I-45] | – | 100 | 100 | 100 | 80 | –
CCS(=O)(=O)c1ccc(-n2ncn(-c3cccc(Cl)c3)c2=O)nc1-c1nc2cc(C(F)(F)C(F)(F)F)ccc2o1 [Example I-46] | – | 100 | 80 | 90 | 100 | –
CCS(=O)(=O)c1ccc(-n2ncn(-c3cccc(F)c3)c2=O)nc1-c1nc2cc(C(F)(F)C(F)(F)F)ccc2o1 [Example I-47] | – | 100 | 80 | 100 | 80 | –
CCS(=O)(=O)c1ccc(-n2ncn(-c3ccc(F)cc3)c2=O)nc1-c1nc2cc(S(=O)(=O)C(F)(F)C(F)(F)F)ccc2o1 [Example I-52] | – | 100 | 100 | 100 | 100 | –
CCS(=O)(=O)c1ccc(-n2ncn(-c3ccc(F)cc3)c2=O)nc1-c1nc2cc(C(F)(F)C(F)(F)F)ccc2o1 [Example I-56] | – | 100 | 100 | 100 | 100 | –
CCc1nc(C(F)(F)F)cc2nc(-c3nc(-n4ncn(-c5ccc(O)cc5)c4=O)ccc3S(=O)(=O)CC)n(C)c12 [I-016 Known from WO2018/141954, reference compound] | – | – | – | – | – | Emax at 0.8 ppm (Heliothis armigera): 10%; Emax at 4 ppm (Heliothis armigera): 55%; Emax at 0.8 ppm (Spodoptera frugiperda [3]): 65%; Emax at 0.8 ppm (Plutella xylostella): 70%
CCS(=O)(=O)c1ccc(-n2cnn(-c3ccccc3F)c2=O)nc1-c1nc2cc(C(F)(F)F)ccc2n1C [I-34 Known from WO2017/055185, reference compound] | – | – | – | – | – | Emax at 4 ppm (Heliothis armigera): 0%; Emax at 0.8 ppm (Spodoptera frugiperda [3]): 0%; Emax at 4 ppm (Plutella xylostella; 4 ppm): 0%
